Measured values reported in ChEMBL document CHEMBL2417453, “Anti-inflammatory asterosaponins from the starfish Astropecten monacanthus” (J Nat Prod, 2013).

Columns and labels:
Assay type in all cases: functional, cell-based
Conditions in all cases: C57BL/6, BMDC
[1] = Antiinflammatory activity in C57BL/6 mouse BMDC cells assessed as inhibition of LPS-induced IL-12 p40 production preincubated for 1 hr prior to LPS-stimulation measured after 18 hrs by ELISA
[2] = Antiinflammatory activity in C57BL/6 mouse BMDC cells assessed as inhibition of LPS-induced IL-6 production preincubated for 1 hr prior to LPS-stimulation measured after 18 hrs by ELISA
[3] = Antiinflammatory activity in C57BL/6 mouse BMDC cells assessed as inhibition of LPS-induced TNFalpha production preincubated for 1 hr prior to LPS-stimulation measured after 18 hrs by ELISA

Structure (SMILES)	IC50 [1] [µM]	IC50 [2] [µM]	IC50 [3] [µM]
C/C(=C\C(=O)CC(C)C)[C@H]1CC[C@H]2[C@@H]3C[C@H](O[C@@H]4O[C@H](C)[C@@H](O)[C@H](O[C@@H]5OC[C@@H](O[C@@H]6O[C@H](CO)[C@H](O)[C@H](O)[C@H]6O[C@@H]6O[C@H](C)[C@H](O)[C@H](O[C@@H]7O[C@@H](CO)[C@H](O)[C@H]7O)[C@H]6O)[C@H](O)[C@H]5O[C@@H]5O[C@H](C)[C@@H](O)[C@H](O)[C@H]5O)[C@H]4O)[C@H]4C[C@@H](OS(=O)(=O)O)CC[C@]4(C)C3=CC[C@]12C	> 50	3.17	> 50
CC(C)C[C@H](O)C[C@](C)(O)[C@H]1CC[C@H]2[C@@H]3C[C@H](O[C@@H]4O[C@H](C)[C@@H](O)[C@H](O[C@@H]5OC[C@@H](O[C@@H]6O[C@H](CO)[C@H](O)[C@H](O)[C@H]6O[C@@H]6O[C@H](C)[C@H](O)[C@H](O[C@@H]7O[C@@H](CO)[C@H](O)[C@H]7O)[C@H]6O)[C@H](O)[C@H]5O[C@@H]5O[C@H](C)[C@@H](O)[C@H](O)[C@H]5O)[C@H]4O)[C@H]4C[C@@H](OS(=O)(=O)O)CC[C@]4(C)C3=CC[C@@]21C	> 50	> 50	> 50
CC(=O)[C@H]1CC[C@H]2[C@@H]3C[C@H](O[C@@H]4O[C@H](C)[C@@H](O)[C@H](O[C@@H]5OC[C@@H](O[C@@H]6O[C@H](CO)[C@H](O)[C@H](O)[C@H]6O[C@@H]6O[C@H](C)[C@H](O)[C@H](O[C@@H]7O[C@@H](CO)[C@H](O)[C@H]7O)[C@H]6O)[C@H](O)[C@H]5O[C@@H]5O[C@H](C)[C@@H](O)[C@H](O)[C@H]5O)[C@H]4O)[C@H]4C[C@@H](OS(=O)(=O)O)CC[C@]4(C)C3=CC[C@]12C	> 50	30.5	> 50
CC(=O)CC(=O)C[C@@](C)(O)[C@H]1CC[C@H]2[C@@H]3C[C@H](O[C@@H]4O[C@H](CO)[C@@H](O)[C@H](O[C@@H]5O[C@H](C)[C@@H](O[C@@H]6O[C@H](C)[C@H](O)[C@H](O)[C@H]6O[C@@H]6O[C@H](C)[C@H](O)[C@H](O)[C@H]6O)[C@H](O)[C@H]5O[C@@H]5O[C@H](C)[C@@H](O)[C@H](O)[C@H]5O)[C@H]4O)[C@H]4C[C@@H](OS(=O)(=O)O)CC[C@]4(C)C3=CC[C@@]21C	0.6	3.51	1.21
CC(C)=CC(=O)C[C@@H](C)[C@H]1CC[C@H]2[C@@H]3C[C@H](O[C@@H]4O[C@H](CO)[C@@H](O)[C@H](O[C@@H]5O[C@H](C)[C@@H](O[C@@H]6O[C@H](C)[C@H](O)[C@H](O)[C@H]6O[C@@H]6O[C@H](C)[C@H](O)[C@H](O)[C@H]6O)[C@H](O)[C@H]5O[C@@H]5O[C@H](C)[C@@H](O)[C@H](O)[C@H]5O)[C@H]4O)[C@H]4C[C@@H](OS(=O)(=O)O)CC[C@]4(C)C3=CC[C@]12C	> 50	4.37	> 50
CC(C)CC(=O)C[C@](C)(O)[C@H]1CC[C@H]2[C@@H]3C[C@H](O[C@@H]4O[C@H](C)[C@@H](O)[C@H](O[C@@H]5OC[C@@H](O[C@@H]6O[C@H](CO)[C@H](O)[C@H](O)[C@H]6O[C@@H]6O[C@H](C)[C@H](O)[C@H](O[C@@H]7O[C@@H](CO)[C@H](O)[C@H]7O)[C@H]6O)[C@H](O)[C@H]5O[C@@H]5O[C@H](C)[C@@H](O)[C@H](O)[C@H]5O)[C@H]4O)[C@H]4C[C@@H](OS(=O)(=O)O)CC[C@]4(C)C3=CC[C@@]21C [PSILASTEROSIDE]	> 50	> 50	> 50
C[S+]([O-])c1ccc(-c2nc(-c3ccc(F)cc3)c(-c3ccncc3)[nH]2)cc1 (stereo unspecified) [SB-203580]	5	3.5	7.5
